Assay: xn = mol fraction of the nth substance listed
Conditions: Liquid, Vibrating tube method

CC1CCCCC1 [methylcyclohexane] + CCO
mass density [kg/m3]
Conditions	100 kPa	5000 kPa	10000 kPa	15000 kPa	20000 kPa	25000 kPa	30000 kPa	35000 kPa	40000 kPa	45000 kPa
313.15 K, x2 = 0.5	–	–	–	–	–	–	–	–	–	790.2
313.15 K, x2 = 0.625	–	–	–	–	–	–	–	–	–	792.6
313.15 K, x2 = 0.75	–	–	–	–	–	–	–	–	–	795.8
313.15 K, x2 = 0.875	–	–	–	–	–	–	–	–	–	800.4
323.15 K, x2 = 0	742.9	747.7	752.5	756.9	761.1	765.1	769	772.6	776.1	779.5
323.15 K, x2 = 0.052	742	746.9	751.7	756.3	760.5	764.5	768.4	772.1	775.6	779.1
323.15 K, x2 = 0.125	741.9	746.8	751.7	756.2	760.5	764.6	768.5	772.2	775.7	779.2
323.15 K, x2 = 0.25	742.4	747.4	752.3	756.8	761.2	765.3	769.2	772.9	776.5	780
323.15 K, x2 = 0.375	743.4	748.5	753.4	758	762.4	766.5	770.4	774.2	777.8	781.2
323.15 K, x2 = 0.5	745	750.1	755	759.6	764	768.2	772.1	775.9	779.5	783
323.15 K, x2 = 0.625	747.4	752.4	757.4	762	766.4	770.5	774.5	778.2	781.9	785.3
323.15 K, x2 = 0.75	750.7	755.7	760.6	765.2	769.6	773.7	777.7	781.5	785.1	788.6
323.15 K, x2 = 0.875	755.6	760.6	765.5	770.1	774.4	778.5	782.4	786.2	789.8	793.3
333.15 K, x2 = 0	733.9	739	744.1	748.8	753.3	757.5	761.5	765.4	769	772.5
333.15 K, x2 = 0.052	732.8	738.1	743.2	748	752.5	756.8	760.9	764.7	768.5	772
333.15 K, x2 = 0.125	732.4	737.8	742.9	747.8	752.3	756.6	760.7	764.6	768.4	771.9
333.15 K, x2 = 0.25	732.7	738.1	743.3	748.2	752.8	757.1	761.3	765.2	769	772.6
333.15 K, x2 = 0.375	733.7	739.1	744.4	749.3	753.9	758.3	762.4	766.4	770.2	773.8
333.15 K, x2 = 0.5	735.3	740.7	746	750.9	755.6	759.9	764.1	768.1	771.9	775.5
333.15 K, x2 = 0.625	737.6	743	748.3	753.3	757.9	762.3	766.4	770.4	774.2	777.9
333.15 K, x2 = 0.75	741	746.4	751.6	756.6	761.2	765.5	769.7	773.7	777.5	781.1
333.15 K, x2 = 0.875	746	751.4	756.6	761.5	766	770.4	774.5	778.4	782.2	785.9
343.15 K, x2 = 0	724.8	730.4	735.8	740.8	745.6	750	754.2	758.2	762.1	765.7
343.15 K, x2 = 0.052	723.4	729.1	734.6	739.7	744.5	749	753.3	757.4	761.3	765
343.15 K, x2 = 0.125	722.8	728.6	734.1	739.3	744.2	748.7	753	757.1	761	764.8
343.15 K, x2 = 0.25	722.9	728.7	734.3	739.6	744.5	749.1	753.5	757.6	761.5	765.3
343.15 K, x2 = 0.375	723.8	729.6	735.3	740.5	745.5	750.1	754.5	758.6	762.6	766.4
343.15 K, x2 = 0.5	725.3	731.2	736.9	742.1	747.1	751.7	756.1	760.3	764.3	768.1
343.15 K, x2 = 0.625	727.6	733.5	739.2	744.4	749.4	754	758.4	762.6	766.6	770.4
343.15 K, x2 = 0.75	731.1	736.9	742.5	747.8	752.7	757.3	761.7	765.9	769.8	773.6
343.15 K, x2 = 0.875	736.3	742.1	747.6	752.8	757.7	762.3	766.6	770.8	774.7	778.4
353.15 K, x2 = 0	715.7	721.7	727.4	732.8	737.8	742.5	747	751.2	755.2	759
353.15 K, x2 = 0.052	–	720.2	726	731.5	736.6	741.3	745.8	750.1	754.2	758
353.15 K, x2 = 0.125	–	719.3	725.3	730.8	736	740.8	745.3	749.6	753.7	757.7
353.15 K, x2 = 0.25	–	719.2	725.2	730.8	736	740.9	745.5	749.9	754	758
353.15 K, x2 = 0.375	–	719.9	726	731.7	736.9	741.8	746.4	750.8	755	759
353.15 K, x2 = 0.5	–	721.4	727.5	733.1	738.4	743.4	748	752.4	756.6	760.6
353.15 K, x2 = 0.625	–	723.7	729.8	735.4	740.7	745.6	750.3	754.6	758.8	762.8
353.15 K, x2 = 0.75	–	727.1	733.2	738.8	744	748.9	753.6	757.9	762.1	766.1
353.15 K, x2 = 0.875	–	732.5	738.4	743.9	749.1	753.9	758.5	762.9	767	771

From the NIST ThermoML archive (doi:10.1016/j.jct.2005.03.016)
